How the values were obtained:
LATS2 = biological target: T1, LATS2 (Homo sapiens, UniProt Q9NRM7); experiment: biochemical; parameters: Reaction Biology HotSpot radiometric 33P-ATP catalytic assay at Km ATP; percent inhibition versus DMSO, mean n=2; settings: Km ATP
T1 sequence (Q9NRM7 1-1088): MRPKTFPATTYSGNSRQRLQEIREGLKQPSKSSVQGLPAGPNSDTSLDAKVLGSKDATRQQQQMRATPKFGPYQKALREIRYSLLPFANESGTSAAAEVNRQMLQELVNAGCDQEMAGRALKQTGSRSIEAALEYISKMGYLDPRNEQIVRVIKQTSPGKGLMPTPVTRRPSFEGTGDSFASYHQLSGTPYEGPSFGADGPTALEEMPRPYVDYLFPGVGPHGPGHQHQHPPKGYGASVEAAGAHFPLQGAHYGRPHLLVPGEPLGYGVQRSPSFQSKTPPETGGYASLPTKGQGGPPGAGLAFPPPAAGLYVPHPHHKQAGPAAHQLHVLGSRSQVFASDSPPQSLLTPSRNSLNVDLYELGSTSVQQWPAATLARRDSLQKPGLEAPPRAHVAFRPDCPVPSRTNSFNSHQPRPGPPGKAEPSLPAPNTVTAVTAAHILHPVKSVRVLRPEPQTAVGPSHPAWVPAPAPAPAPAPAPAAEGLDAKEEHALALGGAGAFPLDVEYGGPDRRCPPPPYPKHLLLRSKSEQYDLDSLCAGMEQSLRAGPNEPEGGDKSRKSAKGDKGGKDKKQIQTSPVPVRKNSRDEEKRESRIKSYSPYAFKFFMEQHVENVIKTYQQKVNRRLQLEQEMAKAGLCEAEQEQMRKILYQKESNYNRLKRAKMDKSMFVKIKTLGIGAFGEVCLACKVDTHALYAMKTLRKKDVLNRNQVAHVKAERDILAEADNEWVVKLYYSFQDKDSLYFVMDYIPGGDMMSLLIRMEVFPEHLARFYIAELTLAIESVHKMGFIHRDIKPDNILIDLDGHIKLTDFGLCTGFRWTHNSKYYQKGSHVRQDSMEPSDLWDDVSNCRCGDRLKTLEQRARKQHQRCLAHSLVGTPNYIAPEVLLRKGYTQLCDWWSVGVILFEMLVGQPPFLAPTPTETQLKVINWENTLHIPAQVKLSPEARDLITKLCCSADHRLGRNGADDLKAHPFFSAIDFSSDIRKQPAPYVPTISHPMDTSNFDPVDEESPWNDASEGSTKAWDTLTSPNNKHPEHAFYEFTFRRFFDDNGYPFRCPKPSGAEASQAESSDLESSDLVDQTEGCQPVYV
Source text: (§1) Unreacted phosphate is removed via washing the filters.

PIM2 = PIM2 (Homo sapiens, UniProt Q9P1W9); experiment: biochemical; parameters: Reaction Biology HotSpot radiometric 33P-ATP catalytic assay at Km ATP; percent inhibition versus DMSO, mean n=2; settings: Km ATP
Source text: as §1

Aurora B = biological target: T2, Aurora B (Homo sapiens, UniProt Q96GD4); experiment: biochemical; settings: read-out: Niraparib
T2 construct: gene AURKB

MYLK4 = biological target: T3, MYLK4 (Homo sapiens, UniProt Q86YV6); experiment: HotSpot radiometric kinase assay at […] (Km ATP), follow-up of KinomeScan binding; assay type: biochemical; settings: read-out: Rucaparib
T3 sequence (Q86YV6 1-388): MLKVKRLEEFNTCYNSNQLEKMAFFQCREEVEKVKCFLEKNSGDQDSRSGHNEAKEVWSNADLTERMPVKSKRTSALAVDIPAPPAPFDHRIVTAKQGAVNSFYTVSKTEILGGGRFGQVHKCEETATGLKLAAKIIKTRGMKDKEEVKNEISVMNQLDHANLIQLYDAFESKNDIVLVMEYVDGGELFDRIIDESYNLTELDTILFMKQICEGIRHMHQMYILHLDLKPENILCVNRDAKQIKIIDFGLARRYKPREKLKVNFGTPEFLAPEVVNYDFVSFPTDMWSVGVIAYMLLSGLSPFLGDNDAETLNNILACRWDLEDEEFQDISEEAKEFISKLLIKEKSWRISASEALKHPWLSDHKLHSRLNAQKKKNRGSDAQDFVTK

PIM1 = PIM1 (Homo sapiens, UniProt P11309); experiment: KinomeScan active site-directed competition binding at […]; […] catalytic inhibition at […] (n = […])
TSSK3 = biological target: T4, TSSK3 (Homo sapiens, UniProt Q96PN8); experiment: biochemical; parameters: Reaction Biology HotSpot radiometric 33P-ATP catalytic assay at Km ATP; percent inhibition versus DMSO, mean n=2; settings: Km ATP
T4 sequence (Q96PN8 1-268): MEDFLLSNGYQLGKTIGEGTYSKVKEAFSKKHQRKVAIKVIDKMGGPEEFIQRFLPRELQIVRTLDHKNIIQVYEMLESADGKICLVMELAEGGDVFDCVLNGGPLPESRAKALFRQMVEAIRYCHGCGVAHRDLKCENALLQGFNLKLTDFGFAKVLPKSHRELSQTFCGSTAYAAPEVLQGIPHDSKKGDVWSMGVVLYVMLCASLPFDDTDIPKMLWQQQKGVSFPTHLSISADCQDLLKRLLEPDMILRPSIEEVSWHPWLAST
Source text: as §1

FLT3(ITD) = FLT3(ITD) (Homo sapiens, UniProt P36888); experiment: biochemical; parameters: DiscoveRx KINOMEscan active site-directed competition binding; percent of control kinase bound to immobilised ligand; settings: binding competition, % of control

| inhibition at 1 µM (MYLK4) | inhibition at 1 µM (TSSK3) | Rucaparib / %Ctrl @ 10000nM (FLT3(ITD)) | SMILES | inhibition at 1 µM (LATS2) | inhibition at 1 µM (PIM2) | inhibition at 1 µM (Aurora B) | KinomeScan active site-directed competition binding at 10 μM; 27% catalytic inhi (PIM1) |
| --- | --- | --- | --- | --- | --- | --- | --- |
| – | – | – | NC(=O)c1cccc2cn(-c3ccc([C@@H]4CCCNC4)cc3)nc12 [Niraparib] | 17% | -5% | 34% | – |
| 36% | -1% | 41% | CNCc1ccc(-c2[nH]c3cc(F)cc4c3c2CCNC4=O)cc1 [Rucaparib] | – | – | – | recover most of the previously known off-targets of rucaparib, including the most potent known interactions with PIM1 and DYRK1A |

From publication PMC7026418, “The kinase polypharmacology landscape of clinical PARP inhibitors” (Scientific Reports, 2020)
